Measurements reported in patent publication US20260176262A1, “KRAS INHIBITORS, PREPARATION METHOD THEREFOR, AND PHARMACEUTICAL USE THEREOF” (ABBISKO THERAPEUTICS CO., LTD., priority 2021, published 2026).
Like-named read-outs stand apart in the source and are kept apart here.

Experiments:
KRAS^G12D/cRAF = KRAS^G12D/cRAF (Homo sapiens, UniProt P01116, G12D); assay: KRAS G12D/cRAF binding test (Alphalisa); details: His-tagged KRAS G12D + GMPPNP, GST-tagged cRAF
Procedure: The compound was dissolved in 100% DMSO at a starting concentration of 5 mM and diluted in DMSO with a 3-fold serial dilution method for a total of 8 concentration points. 1 μL of the compound or DMSO at each concentration point was added into 99 μL of the experimental buffer to obtain 10× stock solution.
• 1) 4 μL of the working mixture solution of His-tagged KRAS^G12D and GMPPNP was added to the 384-well plate. • 2) The 10× compound stock solution or 1% DMSO was added to the 384-well plate. • 3) The plate was centrifuged at 1000 rpm for 1 minute. • 4) 4 μL of GST-tagged cRAF solution was added to the 384-well plate. • 5) The plate was centrifuged at 1000 rpm for 1 minute. • 6) The plate was incubated at room temperature for 15 minutes. • 7) 10 μL of detection working solution was added to the 384-well plate. • 8) The plate was centrifuged at 1000 rpm for 1 minute. • 9) The plate was incubated at room temperature for 60 minutes. • 10) The 384-well plate was placed into Envision and assay data was obtained.
(§1) The ratio for each compound concentration was calculated from the signal of the DMSO control group contained in each assay plate and the Alphalisa signal in each compound well. The compound concentration required for inhibitory concentration at 50% (IC50) was determined using a four-parameter logarithmic dose-response equation by testing the concentration of the compound and the value of the ratio. The endpoint value (IC50) of the reference compound was assessed in each experiment as a quality control measure. If the endpoint value is within three times the expected value, the experiment may be considered acceptable.

AGS cell = assay: Anti-proliferative 2D CTG assay, AGS cells; type: cell-based; details: AGS cells, incubated 3 days, CTG, read-out: AGS cell IC50
Procedure: When the cell confluence was about 80%, the cells were isolated with 0.25% trypsin. Isolated cells were resuspended in 5 mL fresh cell culture medium and centrifuged for cell collection. Meanwhile, the number of cells was also calculated. The cells were then suspended in culture medium of medium concentration. The cells were placed into a 96-well plate with 1000 cells/well for AGS and 1000 cells/well for GP2D. The 96-well plate was placed in an incubator at 37° C. and incubated overnight.
1.2 Day 1 Compound Treatment From the 10 mM stock solution, with a ratio of 1:5, 10-point serial dilutions were performed. The 10× medium containing the compound was transferred into corresponding wells of the 96 wells. The final maximum compound concentration was […] and the final DMSO concentration was 0.1%. The 96-well plate was placed in a 37° C. incubator, the AGS cells were incubated for 3 days, and the GP2D cells were incubated for 4 days.
50 μL/well of detection reagent (CTG) was added to the AGS cells, and the signal was read in an Envision machine.
as §1, with “The percent inhibition (%) at” for “The ratio for”, “signal in” for “signal of”, “the HPE and ZPE” for “the DMSO”, “control wells and the fluorescence signal in the individual compound wells included” for “control group contained”, “assay plate. […]” for “assay plate and the Alphalisa signal in each compound well.”, “the inhibition percentage value.” for “the value of the ratio.”

[1] = Homo sapiens, 72 h, numeric values
[2] = Homo sapiens, 72 h, class symbols

KRAS^G12D/cRAF, sequence (P01116 1-188 isoform P01116-2 G12D): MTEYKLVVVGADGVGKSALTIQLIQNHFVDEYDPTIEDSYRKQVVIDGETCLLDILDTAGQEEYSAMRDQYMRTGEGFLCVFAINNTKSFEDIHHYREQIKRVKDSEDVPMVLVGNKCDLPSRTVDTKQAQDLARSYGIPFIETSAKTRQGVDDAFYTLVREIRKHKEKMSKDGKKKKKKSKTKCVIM

Compound	IC50 (KRAS^G12D/cRAF; numeric values) [µM]	IC50 (KRAS^G12D/cRAF; class symbols) [µM]	IC50 (AGS cell; [2]) [µM]	other results
C#Cc1c(F)ccc2cc(O)cc(-c3ncc4c(N5C[C@H]6CC[C@@](/C=C\F)(C5)N6)nc(OC[C@@]56CCCN5C[C@H](F)C6)nc4c3F)c12 [Example 59, 5-ethynyl-6-fluoro-4-(8-fluoro-2-(((2R,7aS)-2-fluorotetrahydro-1H-pyrrolizin-7a(5H)-yl)methoxy)-4-((1R,5R)-1-((Z)-2-fluorovinyl)-3,8-diazabicyclo[3.2.1]octan-3-yl)pyrido[4,3-d]pyrimidin-7-yl)naphthalen-2-ol]	0.015	–	–	IC50 (AGS cell; [1]): 0.013 µM
[2H]C([2H])([2H])OC[C@]12CC[C@H](CN(c3nc(OC[C@@]45CCCN4C[C@H](F)C5)nc4c(F)c(-c5cc(O)cc6ccc(F)c(C#C)c56)nc(OC)c34)C1)N2 [Example 49, 5-ethynyl-6-fluoro-4-(8-fluoro-2-(((2R,7aS)-2-fluorotetrahydro-1H-pyrrolizin-7a(5H)-yl)methoxy)-5-methoxy-4-((1S,5R)-1-((methoxy-d3)methyl)-3,8-diazabicyclo[3.2.1]octan-3-yl)pyrido[4,3-d]pyrimidin-7-yl)naphthalen-2-ol]	0.262	–	–	IC50 (AGS cell; [1]): 0.288 µM
C#Cc1c(F)ccc2cc(O)cc(-c3ncc4c(N5CC6CCC(/C=C/F)(C5)N6)nc(OC[C@@]56CCCN5C[C@H](F)C6)nc4c3F)c12 (stereo partly drawn) [Example 28, 5-ethynyl-6-fluoro-4-(8-fluoro-2-(((2R,7aS)-2-fluorotetrahydro-1H-pyrrolizin-7a(5H)-yl)methoxy)-4-(1-((E)-2-fluorovinyl)-3,8-diazabicyclo[3.2.1]octan-3-yl)pyrido[4,3-d]pyrimidin-7-yl) naphthalen-2-ol]	–	0.05 to 0.5	< 0.05	–
C#Cc1c(F)ccc2cc(O)cc(-c3ncc4c(N5CC6CCC(COC(F)F)(C5)N6)nc(OC[C@@]56CCCN5C[C@H](F)C6)nc4c3F)c12 (stereo partly drawn) [Example 4, 4-(4-(1-((difluoromethoxy)methyl)-3,8-diazabicyclo[3.2.1]octan-3-yl)-8-fluoro-2-(((2R,7aS)-2-fluorotetrahydro-1H-pyrrolizin-7a(5H)-yl)methoxy)pyrido[4,3-d]pyrimidin-7-yl)-5-ethynyl-6-fluoronaphthalen-2-ol]	–	0.05 to 0.5	0.05 to 0.5	–
C#Cc1c(F)ccc2cc(O)cc(-c3ncc4c(N5CC6CCC(CS(C)(=O)=O)(C5)N6)nc(OC[C@@]56CCCN5C[C@H](F)C6)nc4c3F)c12 (stereo partly drawn) [Example 11, 5-ethynyl-6-fluoro-4-(8-fluoro-2-(((2R,7aS)-2-fluorotetrahydro-1H-pyrrolizin-7a(5H)-yl)methoxy)-4-(1-((methanesulfonyl)methyl)-3,8-diazabicyclo[3.2.1]octan-3-yl)pyrido[4,3-d]pyrimidin-7-yl)naphthalen-2-ol]	–	> 0.5	> 0.5	–
C#Cc1c(F)ccc2cc(O)cc(-c3ncc4c(N5C[C@@H]6CC[C@](C=C)(C5)N6)nc(OC[C@@]56CCCN5C[C@H](F)C6)nc4c3F)c12 [Example 58, 5-ethynyl-6-fluoro-4-(8-fluoro-2-(((2R,7aS)-2-fluorotetrahydro-1H-pyrrolizin-7a(5H)-yl)methoxy)-4-((1S,5S)-1-vinyl-3,8-diazabicyclo[3.2.1]octan-3-yl)pyrido[4,3-d]pyrimidin-7-yl)naphthalen-2-ol]	0.047	–	–	IC50 (AGS cell; [1]): 0.127 µM
C#Cc1c(F)ccc2cc(O)cc(-c3ncc4c(N5CC6CCC(C(C)O)(C5)N6)nc(OC[C@@]56CCCN5C[C@H](F)C6)nc4c3F)c12 (stereo partly drawn) [Example 13, 5-ethynyl-6-fluoro-4-(8-fluoro-2-(((2R,7aS)-2-fluorotetrahydro-1H-pyrrolizin-7a(5H)-yl)methoxy)-4-(1-(1-hydroxyethyl)-3,8-diazabicyclo[3.2.1]octan-3-yl)pyrido[4,3-d]pyrimidin-7-yl) naphthalen-2-ol]	–	–	0.05 to 0.5	–
C#Cc1c(F)ccc2cc(O)cc(-c3ncc4c(N5C[C@@H]6CC[C@](COC)(C5)N6)nc(OC[C@@]56CCCN5C[C@H](F)C6)nc4c3F)c12 [Example 46, 5-ethynyl-6-fluoro-4-(8-fluoro-2-(((2R,7aS)-2-fluorotetrahydro-1H-pyrrolizin-7a(5H)-yl)methoxy)-4-((1R,5S)-1-(methoxymethyl)-3,8-diazabicyclo[3.2.1]octan-3-yl)pyrido[4,3-d]pyrimidin-7-yl)naphthalen-2-ol]	–	0.05 to 0.5	< 0.05	–
C#Cc1c(F)ccc2cc(O)cc(-c3ncc4c(N5C[C@H]6CC[C@@](C)(C5)N6)nc(OC[C@@]56CCCN5C[C@H](F)C6)nc4c3F)c12 [Example 44]	0.019	–	–	IC50 (AGS cell; numeric values): 0.0061 µM
C#Cc1c(F)ccc2cc(O)cc(-c3ncc4c(N5C[C@H]6CC[C@@](/C=C/F)(C5)N6)nc(OC[C@@]56CCCN5C[C@H](F)C6)nc4c3F)c12 [Example 61, 5-ethynyl-6-fluoro-4-(8-fluoro-2-(((2R,7aS)-2-fluorotetrahydro-1H-pyrrolizin-7a(5H)-yl)methoxy)-4-((1R,5R)-1-((E)-2-fluorovinyl)-3,8-diazabicyclo[3.2.1]octan-3-yl)pyrido[4,3-d]pyrimidin-7-yl)naphthalen-2-ol]	0.876	–	–	IC50 (AGS cell; [1]): 0.816 µM
C#Cc1c(F)ccc2cc(O)cc(-c3ncc4c(N5CC6CCC(/C=C\C)(C5)N6)nc(OC[C@@]56CCCN5C[C@H](F)C6)nc4c3F)c12 (stereo partly drawn) [Example 29, 5-ethynyl-6-fluoro-4-(8-fluoro-2-(((2R,7aS)-2-fluorotetrahydro-1H-pyrrolizin-7a(5H)-yl)methoxy)-4-(1-((Z)-prop-1-en-1-yl)-3,8-diazabicyclo[3.2.1]octan-3-yl)pyrido[4,3-d]pyrimidin-7-yl)naphthalen-2-ol]	–	0.05 to 0.5	< 0.05	–
[2H]C12CCC(COC([2H])([2H])[2H])(CN(c3nc(OC[C@@]45CCCN4C[C@H](F)C5)nc4c(F)c(-c5cc(O)cc6ccc(F)c(C#C)c56)ncc34)C1)N2 (stereo partly drawn) [Example 3, 5-ethynyl-6-fluoro-4-(8-fluoro-2-(((2R,7aS)-2-fluorotetrahydro-1H-pyrrolizin-7a(5H)-yl)methoxy)-4-(1-((methoxy-d3)methyl)-3,8-diazabicyclo [3.2.1]octan-3-yl-5-d)pyrido [4,3-d]pyrimidin-7-yl)naphthalen-2-ol]	–	–	< 0.05	–
[2H]C([2H])([2H])OCC12CCC(CN(c3nc(OC[C@@]45CCCN4C[C@H](F)C5)nc4c(F)c(-c5cc(O)cc6cc(C)c(F)c(C#C)c56)ncc34)C1)N2 (stereo partly drawn) [Example 17, 5-ethynyl-6-fluoro-4-(8-fluoro-2-(((2R,7aS)-2-fluorotetrahydro-1H-pyrrolizin-7a(5H)-yl)methoxy)-4-(1-((methoxy-d3)methyl)-3,8-diazabicyclo[3.2.1]octan-3-yl)pyrido[4,3-d]pyrimidin-7-yl)-7-methylnaphthalen-2-ol]	–	–	> 0.5	–
C#Cc1c(F)ccc2cc(O)cc(-c3ncc4c(N5C[C@@H]6CC[C@](CCF)(C5)N6)nc(OC[C@@]56CCCN5C[C@H](F)C6)nc4c3F)c12 [Example 56, 5-ethynyl-6-fluoro-4-(8-fluoro-4-((1S,5S)-1-(2-fluoroethyl)-3,8-diazabicyclo[3.2.1]octan-3-yl)-2-(((2R,7aS)-2-fluorotetrahydro-1H-pyrrolizin-7a(5H)-yl)methoxy)pyrido[4,3-d]pyrimidin-7-yl)naphthalen-2-ol]	–	–	< 0.05	–
C#Cc1c(F)ccc2cc(O)cc(-c3ncc4c(N5C[C@H]6CC[C@@](COC)(C5)N6)nc(OC[C@@]56CCCN5C[C@H](F)C6)nc4c3F)c12 [Example 45, 5-ethynyl-6-fluoro-4-(8-fluoro-2-(((2R,7aS)-2-fluorotetrahydro-1H-pyrrolizin-7a(5H)-yl)methoxy)-4-((1S,5R)-1-(methoxymethyl)-3,8-diazabicyclo[3.2.1]octan-3-yl)pyrido[4,3-d]pyrimidin-7-yl)naphthalen-2-ol]	–	> 0.5	–	–
